Measurements: the METLIN SMRT retention time set (Domingo-Almenara et al. 2019)

Assay: gradient 5% acetonitrile 3 min, to 50% in 2 min, to 85% in 15 min, held 3 min, 100 µL/min
Conditions: column: Zorbax Extend-C18 2.1 x 50 mm; eluents: water / acetonitrile, 0.1% formic acid
How it was run: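 Values are retention times taken from adduct peaks that software picked and an analyst inspected. The pure standards were run as mixtures of ~100 molecules on HPLC linked to a quadrupole time-of-flight mass spectrometer, in positive and negative ionization mode. A Zorbax Extend-C18 column (2.1 × 50 mm, 1.8 μm) was used at 100 μL/min with water and acetonitrile, each including 0.1% formic acid.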

Row | SMILES | RP-LC retention time [s]
1 | CCCC(=O)N1CCc2c(c(-c3nnc(SC)n3CC)nn2C)C1 | 705
2 | Cc1ccccc1-n1c(=O)c2sccc2n(Cc2nc(-c3ccc(Cl)cc3)no2)c1=O | 1090
3 | Cn1cc(C=O)c2nccnc21 | 631
4 | O=C(NCCn1nc(-c2cccs2)ccc1=O)c1ccc2ncsc2c1 | 629
5 | Cc1cc(C)cc(N2CCC(NC(=O)Nc3ccccc3C)C2=O)c1 (stereo not given) | 890
6 | Cc1ccccc1-n1ccn(Cc2nc(-c3ccc(F)cc3)no2)c(=O)c1=O | 844
7 | Cc1ccc(C)c(N2CCN(S(=O)(=O)c3ccc(-c4c(C)noc4C)cc3)CC2)c1 | 1250
8 | COc1ccccc1CNC1=NCCNC12CCN(S(=O)(=O)c1ccc(F)cc1)CC2 | 704
9 | O=C(Nc1ccc(-c2nc(-c3ccc(Cl)cc3)no2)cc1)c1cccs1 | 1240
10 | Cc1ccn2cc(C(=O)NC3CCN(Cc4ccccc4)CC3)nc2c1 | 804
11 | COc1ccc2c(c1)C1(CCN(C(=O)c3ccccc3)C1)C(=O)N2 (stereo not given) | 692
12 | CCCc1noc(-c2ccc3nnc(CC(=O)Nc4ccc(C)c(C)c4)n3c2)n1 | 940
13 | Cc1ccc(N2CCN(S(=O)(=O)c3cc(-c4cc(C)no4)cs3)CC2)c(C)c1 | 1240
14 | Cc1cc(=O)n(CC(=O)Nc2ccc3c(c2)OCCO3)c(N2CCc3ccccc3C2)n1 | 732
15 | CCn1cnc2cc(CNC(=O)Cc3ccsc3)ccc21 | 578
16 | O=C(NC(c1ccccc1)c1nnc(-c2ccccc2)o1)c1ccco1 (stereo not given) | 876
17 | Cc1ccc(-n2cc(C3=CCN(CC(=O)N4CCN(c5ccccn5)CC4)CC3)cn2)cc1C | 596
18 | COC1C(=O)N(c2cccc(F)c2)C12CCN(S(=O)(=O)Cc1ccccc1F)CC2 (stereo not given) | 1040
19 | CCN1C=C(C(=O)OCc2ccccc2C)C(C)=NS1(=O)=O | 1030
20 | CC(=O)Nc1ccc(S(=O)(=O)NCC2(c3cccs3)CCOCC2)c(C)c1 | 696
21 | Cc1cc(-c2nc3ccccc3s2)ccc1N | 880
22 | COc1cc(NC(=O)NCCc2c(C)nn(C)c2C)cc(OC)c1OC | 610
23 | CCOc1ccc(C(=O)NC2(c3nc(CC)no3)CCCCC2)cc1OCC | 990

Row | SMILES | RP-LC retention time [s]
24 | C=CCn1c(C)c(CC(=O)NC(C)C)c(=O)n2nc(-c3ccccc3)nc12 | 733
25 | COC1CCC12CCN(S(=O)(=O)c1ccc(C)c(F)c1)CC2 (stereo not given) | 1090
26 | Cc1ccc(Cl)cc1N1CCN(C(=O)c2csc(C(=O)NC3CC3)n2)CC1 | 972
27 | CC(=O)N1CCc2cc(N3CC(C(=O)NC4CCCCCC4)CC3=O)ccc21 (stereo not given) | 723
28 | C=CCN1C(=O)COc2ccc(-c3nc(NC(=O)CCC4CCCCC4)sc3C)cc21 | 1220
29 | COc1ccc(C2C(C(=O)OC(C)C)=C(C)NC3=C2C(=O)CCC3)c(OC)c1OC (stereo not given) | 778
30 | COc1ccc(-c2noc(CCCC(=O)Nc3nc(-c4ccccc4)cs3)n2)cc1OC | 982
31 | Cn1cc(-c2nc(C(=O)NCc3ccc(C(F)(F)F)cc3)cs2)c2cccnc21 | 1040
32 | Cc1ccc(N2C(=O)CN(Cc3ccco3)[C@H]3CS(=O)(=O)C[C@H]32)cc1 | 737
33 | CCN1CCN(c2c(S(=O)(=O)c3ccc(C)c(C)c3)cnc3ccc(OC)cc23)CC1 | 679
34 | Cc1ccc(NC(=O)NCC2(N3CCOCC3)CCOC2)c(C)c1 (stereo not given) | 597
35 | CCc1noc(-c2cnc3nc(C)ccc3c2NC(C)c2ccc(F)cc2)n1 (stereo not given) | 798
36 | COc1cc(F)ccc1-c1ccnc2ncnn12 | 681
37 | CN1CCC(NC(=O)c2n[nH]c3c2CN(C(=O)c2ccccc2Br)CC3)CC1 | 595
38 | Cc1ccc(C)c(CNC(=O)c2cn3c(n2)CCCC3)c1 | 622
39 | COC[C@@H]1CN(S(=O)(=O)c2ccccc2C)C[C@H]1c1ccccn1 | 637
40 | COc1ccc(NC(=O)CSc2nccnc2Sc2ccc(C)cc2)cc1OC | 997
41 | COc1ccccc1NC(=O)N1CCCN(Cc2nc3cc(Cl)ccc3o2)CC1 | 687
42 | O=C(COc1ccccc1)N1CCC(CNS(=O)(=O)c2ccc(Cl)s2)CC1 | 843
43 | O=C(Cc1ccsc1)N1CCC(n2c(-c3ccco3)nc3cccnc32)C1 (stereo not given) | 689
44 | CCC(=O)N1CCc2c(-c3ccc(OC)cc3)cccc2[C@H]1C | 1030
45 | CC(C)Cn1nc(CNC(=O)c2cnccn2)c2ccccc21 | 826
46 | COCCNC(=O)c1c2c(cn(-c3ccc(Cl)cc3)c1=O)C(=O)CC(C)(C)C2 | 856

Other lines, results leading:

Row | RP-LC retention time [s] | SMILES
47 | 937 | O=C(c1ccc(-c2ccc3c(c2)CCN3S(=O)(=O)c2cccc(F)c2)cc1)N1CCOCC1
48 | 874 | COc1cccc(CNC(=O)c2nnc(-c3ccc(S(=O)(=O)N4CCCC4)cc3)o2)c1
49 | 583 | O=C(NCCCN1CCCC1=O)c1ccc(CN2CC(=O)N3CCCC3C2=O)cc1 (stereo not given)
50 | 959 | COc1ccccc1N1CCN(c2cc(SCC(=O)Nc3ccc(F)cc3C)ncn2)CC1
51 | 802 | CCn1cc(C)c(C(=O)O)c1CC(=O)N1CCC(c2ccccc2)C1 (stereo not given)
52 | 707 | CN1CCCn2cc(S(=O)(=O)NCc3ccc(F)cc3Cl)cc2C1=O
53 | 750 | COc1ccc(OC)c(CNC(=O)Cc2cccn2-c2ccc(C)cc2)c1
54 | 741 | O=C(NCCOc1ccc2c(c1)OCO2)C1CCCC1
55 | 835 | COc1ccccc1C(=O)N1CCC2(CC1)OCCN2S(=O)(=O)c1ccc(F)c(C)c1
56 | 601 | c1ccc(Cn2cnnc2C2CCCCN2Cc2ccoc2)cc1 (stereo not given)
57 | 1040 | COc1ccc(NC(=O)c2nnn(-c3ccc(C)c(F)c3)c2C)cc1Cl
58 | 735 | O=C([C@@H]1C[C@H](F)CN1S(=O)(=O)c1ccccc1)N1CCCCC1
59 | 811 | CCCCOc1ccc(NC(=O)c2cc(=O)c3cc(Br)ccc3o2)c2cccnc12
60 | 1010 | Cc1ccc(S(=O)(=O)N(C)C)cc1-c1nnc(-c2ccccc2Cl)o1
61 | 578 | COc1ccc2[nH]c(=O)c(CCC(=O)N(C)CCc3ccccn3)cc2c1
62 | 1060 | CCOC(=O)COc1cc(-c2ccc(C)cc2)nc2ccc(NC(=O)C3CCC3)cc12
63 | 698 | Cc1ccc(N2CCN(CC(O)COc3ccccc3)CC2)cc1 (stereo not given)
64 | 830 | CC(C)Oc1cccc(NC(=O)C2CCN(S(C)(=O)=O)c3ccccc3O2)c1 (stereo not given)
65 | 665 | CCNc1cc(N2CCC(CCC(=O)NCc3cccc(F)c3)CC2)ncn1
66 | 800 | CCc1nn2c(=O)cc(CSc3nnc(-c4cccc(C)c4)o3)nc2s1
67 | 678 | CN1C(=O)c2cccn2CC1CNS(=O)(=O)Cc1ccccc1 (stereo not given)
68 | 1180 | Cc1ccc(-c2nc(Nc3ccc(Cl)cc3Cl)sc2CC(=O)O)cc1

Row | RP-LC retention time [s] | SMILES
69 | 723 | Cc1cc(C(=O)N2CC(F)(F)C[C@H]2c2nc(C)no2)on1
70 | 598 | CCCCN1CC(c2nc3ccccc3n2CC(=O)N2CCOCC2)CC1=O (stereo not given)
71 | 906 | COc1ccc(-c2nnc(COc3cccc(NC(=O)Cc4cccs4)c3)o2)cc1
72 | 580 | CN(C)CCC(c1ccccc1)c1ccccn1 (stereo not given)
73 | 890 | COc1ccc(Cl)cc1NC(=O)NCCCn1c(C(F)(F)F)nc2cccnc21
74 | 798 | CCCOc1ccc(CNC(=O)c2nc(N3CCSCC3)c3cn(C)nc3n2)cc1
75 | 762 | Cc1ccc(CCNC(=O)C2CCCN(c3nnc(C)c4c(C)n(-c5ccccc5)nc34)C2)cc1 (stereo not given)
76 | 624 | CN(CCNC(=O)C1CCCN(c2nn3c(=O)c4c(nc3s2)CCCC4)C1)Cc1ccccc1 (stereo not given)
77 | 574 | O=C(NCCCOc1cccc2cccnc12)c1c(F)cccc1F
78 | 927 | Cc1ccc(CNC(=O)C2(C)CCN(C(=O)Nc3ccccc3C(F)(F)F)CC2)cc1
79 | 748 | O=C(Nc1ccccc1C(F)(F)F)C1CN(C(=O)c2ccc(F)c(F)c2)C1
80 | 946 | COCCCNC(=O)C1c2ccccc2C(=O)N(C2CCCCC2)C12CCCCC2 (stereo not given)
81 | 1120 | Cc1cc(C)nc(NS(=O)(=O)c2ccc(Nc3nc(-c4ccc(C(C)C)cc4)cs3)cc2)n1
82 | 632 | COc1cc(CNC(=O)c2cn3ccc(C)cc3n2)cc(OC)c1
83 | 735 | CCn1cnc(S(=O)(=O)N2CCCC(C(=O)Nc3ccccc3F)C2)c1 (stereo not given)
84 | 926 | CCc1ccc(C2=C(C)C(N3CCCN(C(=O)NCCC(C)C)CC3)=NS2(=O)=O)cc1
85 | 600 | COc1ccc2[nH]c(=O)c(CCC(=O)NCCN3CCCCCC3)cc2c1
86 | 807 | CCn1c(-c2ccccc2)cc(C(=O)NC)c1C
87 | 940 | O=C(C(=O)N1CCN(c2ccccc2Cl)CC1)c1c[nH]c2ccccc12
88 | 690 | O=C(c1cccs1)N1CCCCC1c1nncn1CC1CC1 (stereo not given)
89 | 1000 | COc1ccc(N2C(=O)C3N=NN(Cc4nc(-c5ccc(Cl)cc5)no4)C3C2=O)cc1 (stereo not given)
90 | 634 | COc1cc(C(=O)Nc2ccc(-c3cn4ccc(C)nc4n3)cc2)cc(OC)c1OC
